The text below walks through data of the RepoRT retention time repository (doi:10.1002/rcm.4015).

Each structure is given as a SMILES string.

The data set in a line: RP, Thermo Scientific Hypersil GOLD, 5 × 2.1 mm, 1.9 µm, 45 °C, 0.25 mL/min, estimated dead time 0.044 min; A: water + 0.1% formic acid, pH 3; B: 50% acetonitrile + 50% isopropanol + 0.1% formic acid, pH 3; gradient (min/%B) 0/5 0.5/5 5/50 5.5/95 6.5/95 10/5. The conditions noted are these: stereoisomer not certain.

Turning to `CCCCCC=CCC=CCC=CCC=CCC=CCCC(=O)OC(COC(=O)CCCCCCCCCCCCCCC)COP(=O)([O-])OCC[N+](C)(C)C` (stereo not given) [PC(38:5)], the LC retention time was 7.41 min.

With `CCCCCCC=CCCCCCCCC(=O)OCC(O)COP(=O)([O-])OCC[N+](C)(C)C` (stereo not given) [lysoPC(16:1)], the LC retention time was 6.67 min.

In the case of `CCCCCCCCC=CCCCCCCCC(=O)OCC(O)COP(=O)(O)OCCN` (stereo not given) [lysoPE(18:1)], the LC retention time was 6.92 min. With `CCCCCCCCC=CCC=CCC=CCCCC(=O)OCC(O)COP(=O)([O-])OCC[N+](C)(C)C` (stereo not given) [lysoPC(20:3)], the LC retention time is 6.8 min. The value for `CCC=CCC=CCC=CCC=CCC=CCCCC(=O)OCC(O)COP(=O)([O-])OCC[N+](C)(C)C` (stereo not given) [lysoPC(20:5)] was 6.55 min. The figure for `CCCCCC=CCC=CCC=CCC=CCCCC(=O)OC(COC(=O)CCCCCCCCCCCCC)COP(=O)([O-])OCC[N+](C)(C)C` (stereo not given) [PC(34:4)] is 6.97 min; for `CCCCCCCCC=CCCCCCCCC(=O)OC(COC(=O)CCCCCCCCCCCCCCC)COP(=O)([O-])OCC[N+](C)(C)C` (stereo not given) [PC(34:1)] it is 7.23 min; for `CCCCCC=CCC=CCC=CCC=CCC=CCCC(=O)OC(COC(=O)CCCCCCCCCCCCCCCCC)COP(=O)([O-])OCC[N+](C)(C)C` (stereo not given) [PC(40:5)] it is 7.4 min. The figure for `CCC=CCC=CCC=CCC=CCC=CCC=CCCC(=O)OCC(O)COP(=O)([O-])OCC[N+](C)(C)C` (stereo not given) [lysoPC(22:6)] is 6.65 min.

For `CCCCCC=CCC=CCC=CCC=CCCCC(=O)OC(COC(=O)CCCCCC=CCCCCCCCC)COP(=O)([O-])OCC[N+](C)(C)C` (stereo not given) [PC(36:5)], the LC retention time was 7.38 min. In the case of `CCCCCC=CCC=CCC=CCC=CCCCC(=O)OC(COC(=O)CCCCCCCCCCCCCCC)COP(=O)(O)OCC[N+](C)(C)C` (stereo not given) [PC(36:4)], the LC retention time is 7.43 min. On to `CCC=CCC=CCC=CCC=CCC=CCC=CCCC(=O)OC(COC(=O)CCCCCCCCCCCCCCCCC)COP(=O)([O-])OCC[N+](C)(C)C` (stereo not given) [PC(40:6)], for which the LC retention time was 7.14 min.

For the compound `CCCCCC=CCC=CCCCCCCCCCC(=O)OC(COC(=O)CCCCCCCCCCCCC)COP(=O)([O-])OCC[N+](C)(C)C` (stereo not given) [PC(34:2)], the LC retention time is 6.89 min. The value for `CCCCCCCCCCCCCCCC(=O)OCC(O)COP(=O)([O-])OCC[N+](C)(C)C` (stereo not given) [lysoPC(16:0)] was 6.89 min; that for `CCCCCC=CCC=CCC=CCCCCC(=O)OCC(COP(=O)([O-])OCC[N+](C)(C)C)OC(=O)CCCCCCCCCCCCCCCCCCC` (stereo not given) [PC(38:3)] was 7.4 min; that for `CCCCCCCCC=CCCCCCCCCOCC(O)COP(=O)([O-])OCC[N+](C)(C)C` (stereo not given) [lysoPC(O-18:1)] was 7.1 min. The figure for `CCCCCCCCCCCCCCCCOCC(O)COP(=O)([O-])OCC[N+](C)(C)C` (stereo not given) [lysoPC(O-16:0)] is 7.08 min.

As to `CCCCCC=CCC=CCC=CCC=CCCCC(=O)OCC(O)COP(=O)([O-])OCC[N+](C)(C)C` (stereo not given) [lysoPC(20:4)], the LC retention time was 6.69 min. The value for `CCCCCCCCCCCCCC=CC(O)C(COP(=O)([O-])OCC[N+](C)(C)C)NC(=O)CCCCCCCCCCCCCC` (stereo not given) [SM(33:1)] was 6.69 min; that for `CCCCCC=CCC=CCC=CCC=CCCCCCC(=O)OCC(COP(=O)([O-])OCC[N+](C)(C)C)OC(=O)CCCCC=CCC=CCC=CCCCCC` (stereo not given) [PC(40:7)] was 7.4 min; that for `CCCCCCCCC=CCCCCCCCC(=O)OCC(O)COP(=O)([O-])OCC[N+](C)(C)C` (stereo not given) [lysoPC(18:1)] was 6.93 min. Consider `CCC=CCC=CCC=CCC=CCC=CCC=CCCC(=O)OC(COC(=O)CCCCCCCCCCCCCCC)COP(=O)([O-])OCC[N+](C)(C)C` (stereo not given) [PC(38:6)], for which the LC retention time was 7.39 min. The figure for `CCC=CCC=CCC=CCC=CCC=CCC=CCCC(=O)OC(COC(=O)CCCCCC=CCCCCCCCC)COP(=O)([O-])OCC[N+](C)(C)C` (stereo not given) [PC(38:7)] is 7.37 min; for `CCCCCC=CCC=CCC=CCC=CCCCC(=O)OCC(O)COP(=O)(O)OCCN` (stereo not given) [lysoPE(20:4)] it is 6.69 min; for `CCCCCCCCCCCCCC(=O)OCC(O)COP(=O)([O-])OCC[N+](C)(C)C` (stereo not given) [lysoPC(14:0)] it is 6.62 min.

For `CCCCCC=CCC=CCCCCCCCC(=O)OCC(O)COP(=O)([O-])OCC[N+](C)(C)C` (stereo not given) [lysoPC(18:2)], the LC retention time was 6.72 min. The figure for `CCC=CCC=CCC=CCCCCCCCC(=O)OCC(O)COP(=O)([O-])OCC[N+](C)(C)C` (stereo not given) [lysoPC(18:3)] is 6.59 min; for `CCCCCCCCCCCCCCCCCC(=O)OCC(O)COP(=O)(O)OCCN` (stereo not given) [lysoPE(18:0)] it is 6.75 min; for `CCCCCC=CCC=CCC=CCC=CCCCCCC(=O)OC(COC(=O)CCCCCCCCCCCCCCC)COP(=O)([O-])OCC[N+](C)(C)C` (stereo not given) [PC(38:4)] it is 7.4 min. Turning to `CCC=CCC=CCC=CCCCCCCCC(=O)OC(COC(=O)CCCCCCCCCCCCCCC)COP(=O)([O-])OCC[N+](C)(C)C` (stereo not given) [PC(34:3)], the LC retention time is 7.4 min.
